Earlier results, collected in patent publication US10155776B2, “Method for selective detection and estimation of histidine and cystein” (Council of Scientific and Industrial Research, priority 2014, dated 2018).

Row | Compound | pKa value of the thiol group in the side chain
1 | N[C@@H](CCC(=O)N[C@@H](CS)C(=O)NCC(=O)O)C(=O)O [glutathione] | 9.20
2 | N[C@@H](CCS)C(=O)O [homocysteine] | 8.87
